Earlier results in patent US20220079880A1, “SOLID MICELLAR COMPOSITIONS OF CANNABINOID ACIDS” (priority 2019, published 2022).
Read-outs that look alike come from different tables or passages of the source.

Columns and labels:
MBS model of epilepsy [1] = conditions: mice
MBS model of epilepsy [2] = conditions: rats
seizures = conditions: response = reduced seizure frequency of greater than 50%; surveys
COX-2 = molecular target: T1, COX-2 (Homo sapiens, UniProt P35354)
T1 sequence (P35354 18-604): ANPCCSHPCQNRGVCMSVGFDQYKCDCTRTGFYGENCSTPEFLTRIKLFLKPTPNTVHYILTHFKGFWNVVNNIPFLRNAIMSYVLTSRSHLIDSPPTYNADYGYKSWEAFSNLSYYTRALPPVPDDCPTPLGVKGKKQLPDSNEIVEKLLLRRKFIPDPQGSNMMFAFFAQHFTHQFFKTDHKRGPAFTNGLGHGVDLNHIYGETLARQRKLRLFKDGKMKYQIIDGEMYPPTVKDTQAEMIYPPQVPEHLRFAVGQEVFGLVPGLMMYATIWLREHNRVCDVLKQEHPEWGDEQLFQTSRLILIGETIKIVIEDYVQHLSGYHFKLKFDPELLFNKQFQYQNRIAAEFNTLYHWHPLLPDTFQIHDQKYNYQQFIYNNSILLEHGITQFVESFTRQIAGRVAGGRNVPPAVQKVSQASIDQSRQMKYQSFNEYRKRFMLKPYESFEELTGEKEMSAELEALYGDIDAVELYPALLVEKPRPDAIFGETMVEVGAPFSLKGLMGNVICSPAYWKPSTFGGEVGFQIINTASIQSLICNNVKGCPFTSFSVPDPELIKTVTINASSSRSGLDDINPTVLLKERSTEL

[3] = nano-size lipid-based systems
COX-1 = COX-1 (Homo sapiens, UniProt P23219)
[4] = receptor affinity and effect; purportedly
5-HT1A receptors = molecular target: T2, 5-HT1A receptors (Homo sapiens, UniProt P08908)
T2 sequence (P08908 1-422): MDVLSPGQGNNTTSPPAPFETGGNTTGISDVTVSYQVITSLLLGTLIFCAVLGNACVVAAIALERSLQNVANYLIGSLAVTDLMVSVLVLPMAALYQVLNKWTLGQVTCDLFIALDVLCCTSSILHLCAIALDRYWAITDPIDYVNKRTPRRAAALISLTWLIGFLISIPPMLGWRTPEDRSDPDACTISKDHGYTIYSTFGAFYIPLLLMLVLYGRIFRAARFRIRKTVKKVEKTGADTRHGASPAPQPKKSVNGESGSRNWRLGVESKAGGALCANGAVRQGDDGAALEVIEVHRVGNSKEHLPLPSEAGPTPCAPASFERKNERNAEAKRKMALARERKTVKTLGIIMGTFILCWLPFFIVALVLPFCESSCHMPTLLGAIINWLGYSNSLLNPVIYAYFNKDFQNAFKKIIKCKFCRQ

PPARγ = molecular target: T3, PPARγ (Homo sapiens, UniProt P37231)
T3 sequence (P37231 1-505): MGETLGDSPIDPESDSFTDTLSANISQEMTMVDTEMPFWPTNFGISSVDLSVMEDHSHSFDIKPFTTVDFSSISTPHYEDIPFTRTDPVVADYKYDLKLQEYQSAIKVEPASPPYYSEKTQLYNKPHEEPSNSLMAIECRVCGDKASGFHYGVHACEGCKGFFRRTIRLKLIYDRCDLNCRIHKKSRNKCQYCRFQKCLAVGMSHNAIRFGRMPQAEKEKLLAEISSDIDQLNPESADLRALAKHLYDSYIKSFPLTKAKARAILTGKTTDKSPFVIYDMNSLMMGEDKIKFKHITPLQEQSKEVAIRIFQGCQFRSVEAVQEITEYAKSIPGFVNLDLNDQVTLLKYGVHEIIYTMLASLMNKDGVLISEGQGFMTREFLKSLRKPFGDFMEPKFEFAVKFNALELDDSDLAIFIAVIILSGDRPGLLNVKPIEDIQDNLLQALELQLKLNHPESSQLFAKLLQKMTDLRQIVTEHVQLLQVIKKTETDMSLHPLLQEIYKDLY

TRPA1 = TRPA1 (Homo sapiens, UniProt O75762)
TRPV1′ = TRPV1′ (Homo sapiens, UniProt Q8NER1)
TRPM8 = TRPM8 (Homo sapiens, UniProt Q7Z2W7)
[5] = test system: experimentally induced nausea; conditions: rats; 5HT1A receptor-mediated
[6] = test system: MDA-MB-231 human breast cancer cells
GPR-55 = GPR-55 (Homo sapiens, UniProt Q9Y2T6)
prostate cancer cells = conditions: animal studies

Sequence of TRPV1′ (Q8NER1 whole entry, species assumed): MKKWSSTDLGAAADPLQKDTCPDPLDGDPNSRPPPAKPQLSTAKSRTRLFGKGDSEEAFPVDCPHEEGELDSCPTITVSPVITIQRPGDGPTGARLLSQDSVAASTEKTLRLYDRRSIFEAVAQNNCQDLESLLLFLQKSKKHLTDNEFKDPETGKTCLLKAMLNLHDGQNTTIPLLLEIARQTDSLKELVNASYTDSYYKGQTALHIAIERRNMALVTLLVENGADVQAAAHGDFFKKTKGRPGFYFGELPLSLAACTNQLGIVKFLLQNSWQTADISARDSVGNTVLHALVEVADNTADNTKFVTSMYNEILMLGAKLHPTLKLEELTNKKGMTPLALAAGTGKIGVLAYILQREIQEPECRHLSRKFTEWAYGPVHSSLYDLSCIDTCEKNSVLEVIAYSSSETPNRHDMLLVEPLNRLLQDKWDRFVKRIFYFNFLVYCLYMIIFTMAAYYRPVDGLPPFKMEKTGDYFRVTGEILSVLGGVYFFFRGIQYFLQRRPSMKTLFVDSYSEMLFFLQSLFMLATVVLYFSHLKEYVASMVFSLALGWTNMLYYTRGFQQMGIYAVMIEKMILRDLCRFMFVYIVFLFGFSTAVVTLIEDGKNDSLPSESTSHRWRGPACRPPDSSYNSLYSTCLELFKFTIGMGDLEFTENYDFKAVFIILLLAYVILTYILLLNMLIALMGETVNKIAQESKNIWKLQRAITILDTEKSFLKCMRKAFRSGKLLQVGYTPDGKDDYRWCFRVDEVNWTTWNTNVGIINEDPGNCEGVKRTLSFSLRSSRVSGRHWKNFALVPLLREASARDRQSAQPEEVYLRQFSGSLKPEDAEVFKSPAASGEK
Sequence of TRPA1 (O75762 whole entry, species assumed): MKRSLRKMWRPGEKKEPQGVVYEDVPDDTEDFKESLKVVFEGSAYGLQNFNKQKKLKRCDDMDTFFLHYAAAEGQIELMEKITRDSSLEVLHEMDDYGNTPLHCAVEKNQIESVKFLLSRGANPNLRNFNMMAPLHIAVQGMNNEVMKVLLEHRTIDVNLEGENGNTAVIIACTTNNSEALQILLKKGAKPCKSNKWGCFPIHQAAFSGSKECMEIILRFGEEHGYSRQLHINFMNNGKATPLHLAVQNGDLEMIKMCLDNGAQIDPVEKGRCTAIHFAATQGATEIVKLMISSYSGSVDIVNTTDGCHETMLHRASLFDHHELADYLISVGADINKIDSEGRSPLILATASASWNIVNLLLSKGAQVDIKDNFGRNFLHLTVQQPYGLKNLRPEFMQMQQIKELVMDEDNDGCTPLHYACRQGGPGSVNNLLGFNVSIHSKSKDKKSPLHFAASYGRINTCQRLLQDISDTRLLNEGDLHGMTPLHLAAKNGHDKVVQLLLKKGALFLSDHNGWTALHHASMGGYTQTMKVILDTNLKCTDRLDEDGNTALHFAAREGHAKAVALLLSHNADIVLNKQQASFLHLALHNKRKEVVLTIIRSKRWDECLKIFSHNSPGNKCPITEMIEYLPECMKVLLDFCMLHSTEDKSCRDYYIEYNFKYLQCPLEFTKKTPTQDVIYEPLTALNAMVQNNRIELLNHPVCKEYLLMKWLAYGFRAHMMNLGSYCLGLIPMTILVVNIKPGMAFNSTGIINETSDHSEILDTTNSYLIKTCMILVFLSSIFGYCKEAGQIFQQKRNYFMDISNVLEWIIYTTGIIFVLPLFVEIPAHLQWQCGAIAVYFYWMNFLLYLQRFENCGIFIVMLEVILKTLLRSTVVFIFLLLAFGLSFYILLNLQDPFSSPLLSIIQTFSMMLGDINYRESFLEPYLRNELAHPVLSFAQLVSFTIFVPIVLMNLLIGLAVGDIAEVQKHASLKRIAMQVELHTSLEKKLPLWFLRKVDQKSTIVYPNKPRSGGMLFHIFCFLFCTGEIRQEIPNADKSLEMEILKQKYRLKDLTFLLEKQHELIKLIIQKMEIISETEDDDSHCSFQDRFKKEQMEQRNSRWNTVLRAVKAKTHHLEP
Sequence of COX-1 (P23219 24-599): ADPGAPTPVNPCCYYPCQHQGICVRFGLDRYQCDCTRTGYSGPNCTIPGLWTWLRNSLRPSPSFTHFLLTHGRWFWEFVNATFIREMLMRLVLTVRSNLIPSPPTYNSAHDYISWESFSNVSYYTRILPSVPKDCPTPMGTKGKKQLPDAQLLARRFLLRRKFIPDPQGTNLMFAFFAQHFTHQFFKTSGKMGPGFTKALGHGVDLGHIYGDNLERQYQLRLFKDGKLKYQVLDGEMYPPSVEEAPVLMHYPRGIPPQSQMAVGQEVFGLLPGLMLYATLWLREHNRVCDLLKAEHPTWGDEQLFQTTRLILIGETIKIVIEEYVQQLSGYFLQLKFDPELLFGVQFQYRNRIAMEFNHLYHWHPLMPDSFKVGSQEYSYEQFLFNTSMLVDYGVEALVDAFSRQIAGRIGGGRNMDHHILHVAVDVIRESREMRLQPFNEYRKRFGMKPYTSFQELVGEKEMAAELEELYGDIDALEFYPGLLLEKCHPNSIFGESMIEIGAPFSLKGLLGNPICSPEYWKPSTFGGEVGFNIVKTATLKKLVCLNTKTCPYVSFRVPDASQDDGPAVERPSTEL
Sequence of TRPM8 (Q7Z2W7 whole entry, species assumed): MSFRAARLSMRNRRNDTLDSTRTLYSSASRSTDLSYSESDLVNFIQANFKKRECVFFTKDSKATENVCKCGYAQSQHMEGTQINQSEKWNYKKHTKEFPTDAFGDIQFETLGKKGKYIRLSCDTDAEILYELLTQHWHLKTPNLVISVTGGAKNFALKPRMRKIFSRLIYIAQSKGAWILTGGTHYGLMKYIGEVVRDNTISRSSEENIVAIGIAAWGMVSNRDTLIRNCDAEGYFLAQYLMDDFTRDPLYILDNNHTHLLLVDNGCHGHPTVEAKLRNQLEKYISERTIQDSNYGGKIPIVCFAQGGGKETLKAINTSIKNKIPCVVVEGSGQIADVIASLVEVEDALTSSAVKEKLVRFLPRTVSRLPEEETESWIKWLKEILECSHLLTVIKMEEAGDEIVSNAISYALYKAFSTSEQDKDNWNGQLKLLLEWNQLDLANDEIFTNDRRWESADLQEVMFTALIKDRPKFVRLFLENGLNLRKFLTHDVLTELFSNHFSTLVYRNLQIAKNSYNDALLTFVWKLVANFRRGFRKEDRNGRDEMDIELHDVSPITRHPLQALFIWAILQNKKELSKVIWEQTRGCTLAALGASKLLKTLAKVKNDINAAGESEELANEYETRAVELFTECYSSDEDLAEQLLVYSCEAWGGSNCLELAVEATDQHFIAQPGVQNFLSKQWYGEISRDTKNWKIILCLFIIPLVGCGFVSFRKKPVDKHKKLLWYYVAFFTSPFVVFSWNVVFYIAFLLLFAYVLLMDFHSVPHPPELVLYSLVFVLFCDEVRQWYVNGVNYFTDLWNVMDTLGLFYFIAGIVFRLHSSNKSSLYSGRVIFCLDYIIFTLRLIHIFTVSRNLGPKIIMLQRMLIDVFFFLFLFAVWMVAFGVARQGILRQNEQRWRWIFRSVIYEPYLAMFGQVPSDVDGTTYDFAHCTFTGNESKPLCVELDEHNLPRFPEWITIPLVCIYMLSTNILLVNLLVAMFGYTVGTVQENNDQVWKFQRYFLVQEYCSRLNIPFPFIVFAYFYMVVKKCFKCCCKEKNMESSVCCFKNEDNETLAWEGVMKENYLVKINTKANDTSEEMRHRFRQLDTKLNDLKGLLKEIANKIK
Sequence of GPR-55 (Q9Y2T6 whole entry, species assumed): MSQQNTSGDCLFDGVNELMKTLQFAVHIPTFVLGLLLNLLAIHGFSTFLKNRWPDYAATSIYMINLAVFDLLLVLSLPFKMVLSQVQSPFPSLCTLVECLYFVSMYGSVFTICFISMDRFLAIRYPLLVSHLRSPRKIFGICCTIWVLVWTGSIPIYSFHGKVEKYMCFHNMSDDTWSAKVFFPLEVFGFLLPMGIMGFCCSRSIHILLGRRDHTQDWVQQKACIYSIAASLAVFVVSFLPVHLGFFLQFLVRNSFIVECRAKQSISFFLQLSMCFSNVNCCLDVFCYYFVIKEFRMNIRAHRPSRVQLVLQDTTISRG

SMILES: C=C(C)[C@@H]1CCC(C)=C[C@H]1c1c(O)cc(CCCCC)cc1O [CBD, cannabidiol]
- ED50 for the MBS model of epilepsy (MBS model of epilepsy [1]): 85 mg/kg
- ED50 for the MBS model of epilepsy (MBS model of epilepsy [2]): 89 mg/kg
- response rate (seizures): ~47%
- COX-2 inhibition, in words (COX-2; compared with CBDa): not nearly as active
- improvement in BA [3]: 10 ×

SMILES: C=C(C)[C@@H]1CCC(C)=C[C@H]1c1c(O)cc(CCCCC)c(C(=O)O)c1O [CBDa, cannabidiolic acid]
- concentration that inhibited COX-2 (COX-2): ~2 µM
- COX-1 inhibition, in words (COX-1): does not inhibit
- potency relative to CBD [4]: 1000-4000 ×
- affinity for 5-HT1A receptors over CBD (5-HT1A receptors): 100 fold
- PPARγ binding compared with the corresponding neutral cannabinoid (PPARγ): outperform
- activity at TRPA1 (TRPA1): agonist
- activity at TRPV1′ (TRPV1′): agonist
- activity at TRPM8 (TRPM8): agonist
- effect on experimentally induced nausea [5]: suppressed
- effect on migration of MDA-MB-231 cells [6]: inhibit migration
- effect on GPR-55 (GPR-55): inhibitory effects

SMILES: CCCCCc1cc(O)c(C/C=C(\C)CCC=C(C)C)c(O)c1C(=O)O [CBGa, cannabigerolic acid]
- PPARγ binding compared with the corresponding neutral cannabinoid (PPARγ): outperform

SMILES: CCCCCc1cc2c(c(O)c1C(=O)O)[C@@H]1C=C(C)CC[C@H]1C(C)(C)O2 [THCa, tetrahydrocannabinolic acid]
- PPARγ binding compared with the corresponding neutral cannabinoid (PPARγ): outperform
- effect on spread of prostate cancer cells (prostate cancer cells): limit the spread
